In one data set the test system is male mice of ICR. Kind of data set: Acute toxicity on mice. It is filed as in vivo. Conditions: intraperitoneally, 500 mg/kg, male ICR mice at age of 4 weeks. On the procedure:
Sodium L-tyrosine sulfate was intraperitoneally injected to male mice of ICR at age of 4 weeks at the dose of 500 mg/kg to examine an acute toxicity.

For data set [1], the target named is reverse transcriptase derived from AMV. The data set is described as follows: Reverse transcriptase inhibitory effect, AMV enzyme. It is filed as biochemical, AMV (avian myeloblastosis virus). Conditions: poly(A).oligo(dT)12-18, 37° C., 10 minutes. On the procedure:
(§1) 20 μl of reaction solution was prepared so as to comprise 50 mM of Tris-hydrochloric acid buffer solution (pH 8.5), 40 mM of KCl, 6 mM of MgCl2, 1 mM of dithiothreitol, 50 μg/ml of poly(A). oligo (dT)12-18, [α^-32 P] deoxythymidine triphosphate, reverse transcriptase and sodium L-tyrosine sulfate.
(§2) After the reaction solution was incubated at 37° C. for 10 minutes, the reaction solution was deposited on DE 81 filter (available from Whatman). The filter was then washed thoroughly with 5% aqueous solution of Na2 HPO4 and subsequently with water, ethanol and diethyl ether. Radiation of the filter was examined by scintillation counter and then the concentration which inhibits 50% of reverse transcriptase activity (IC50) was calculated.
(§3) The reverse transcriptases used in this test were those derived from AMV (avian myeloblastosis virus) and HIV.

The next data set can be described thus: Solvent solubility. The class given is physicochemical. As to conditions: sulfate.
The test system of the next data set is mice leukemia cell L1210. Kind of data set: Influence on the proliferation of mice leukemia cell L1210. It is filed as cell-based. As to conditions: 250 μg/ml, cultured for four days, compared with compound-free control. The method, then: To the culture of mice leukemia cell L1210, sodium L-tyrosine sulfate was added at the concentration of 250 μg/ml and then the mixture was cultured for four days.

Data set [2] addresses T1, reverse transcriptase derived from HIV (Human immunodeficiency virus type 1 group M subtype B, UniProt P04585).
T1 construct: the reverse transcriptase derived from HIV
Kind of data set: Reverse transcriptase inhibitory effect, HIV enzyme. It is filed as biochemical. The method, then: as §1, §2, §3

A short description of data set [3]: Influence on the proliferation of T cells (non-infected MT-4 cells). The class given is cell-based. Conditions: human, read-out: Survival rate. On the procedure: (§4) In this test, there were used human T cell strain MT-4 cells (Gann monogr., Vol. 28, pp219-228 (1982)), which was tranformed with HTLV-1 which is an etiogenic virus of adult T cell leukemia, and HTLV-IIIB which is one of HIV strains. This test was performed in accordance with the method of Pauwels et al. (Pauwels et al., J. Virol. Methods, Vol. 20, pp309-21 (1988)).
(§5) Immediately after MT-4 cells were infected with HTLV-IIIB [MOI (multiplicity of infection =the number of inoculated virus/the number of cells): 0.01], sodium L-tyrosine sulfate and the HTLV-IIB-infected MT-4 cells were added to a microtiter plate having 96 wells at a variety of concentrations of sodium L-tyrosine sulfate and the concentration of 2.5×10^4 cells/well, respectively. These samples were cultivated at 37° C. for five days with carbon dioxide incubator. According to MTT method, the number of survival cells was then determined by measuring an absorbance to calculate an efficiency.
As in Test Example 1, there was determined the influence of sodium L-tyrosine sulfate on the proliferation of HTLV-IIIB-non-infected MT-4 cells and the survival rate of the cells was calculated.

Another data set deals with HTLV-IIIB. Kind of data set: Inhibitory effect on HIV-induced cell damage in infected MT-4 cells (MTT method). Conditions: Human immunodeficiency virus 1, IIIB, MT4, 120 h, read-out: Efficiency. The class given is cell-based. On the procedure: as §4, §5

This note sets out measurements from patent publication US5614554A, “Reverse transcriptase inhibitors and antiviral agents” (Nippon Flour Mills Co., Ltd., priority 1992, dated 1997).

Entries after “also recorded” stand apart in the source; their conditions may differ. Read-outs that look alike come from different tables or passages of the source.

With `N[C@@H](Cc1ccc(OS(=O)(=O)[O-])cc1)C(=O)O.[Na+]`, the Acute toxicity result in the data set with male mice of ICR is “not observed any remarkable toxicity”. The “IC50 (concentration which inhibits 50% of reverse transcriptase activity)” value in data set [1] worked out at 230 µg/mL. The Solvent solubility entry in the data set “Solvent solubility” (product of Synthesis Example 1 before purification) was “soluble in water, methanol and dimethyl sulfoxide; also recorded: insoluble in acetone, ethylacetate, hexane and chloroform”; in the data set “Solvent solubility” (product of Synthesis Example 1 purified by Sephadex LH-20), “soluble in water, methanol and dimethyl sulfoxide; also recorded: insoluble in acetone, ethylacetate, hexane and chloroform”. The “Inhibitory effect on the proliferation of L1210” value in the data set with mice leukemia cell L1210 was “hardly any inhibitory effects on the proliferation”.

In the case of `N[C@@H](Cc1ccc(OS(=O)(=O)[O-])cc1)C(=O)O.[Na+]` [sulfate], the midpoint of inhibition in data set [2], the IC50, lay at 127 µM. For the same molecule, in data set [3] (0.32 μg/ml), the viability at 120 h is 98%. The viability at 120 h in data set [3] (1.6 μg/ml) came out at 97%. Also, in data set [3] (8 μg/ml), the viability at 120 h came out at 110%. Also, in data set [3] (40 μg/ml), the viability at 120 h came out at 94%. Besides, the viability at 120 h in data set [3] (200 μg/ml) was found to be 120%. In data set [3] (1000 μg/ml), the viability at 120 h was determined as 112%. Besides, in the data set with HTLV-IIIB, the inhibition at 0.32 µg/mL was -5%, the inhibition at 1.6 µg/mL turned out to be 61%, the inhibition at 8 µg/mL was 116% and the inhibition at 40 µg/mL stood at 91%. Also, in the data set on HTLV-IIIB, the inhibition at 200 µg/mL is 124% and the inhibition at 1000 µg/mL was 106%.
